ChEMBL document CHEMBL3885881, “DrugMatrix”

Species: Rattus norvegicus
Assay: DrugMatrix - Regimen: Daily Repeat
Assay type: toxicity, organism-based, Sprague-Dawley
Set-up: regimen Daily Repeat, gender Male, age 6-8 weeks
Conditions: in vivo, po, route oral GAVAGE, […]; for ABSOLUTE BASOPHIL / ABSOLUTE EOSINOPHIL / BASOPHIL / EOSINOPHIL / NUCLEATED RED BLOOD CELLS / ABSOLUTE LYMPHOCYTE / ABSOLUTE MONOCYTE / ABSOLUTE SEGMENTED NEUTROPHIL / ERYTHROCYTE COUNT / HEMATOCRIT / HEMOGLOBIN / LEUKOCYTE COUNT / LYMPHOCYTE / MEAN CORPUSCULAR HEMOGLOBIN / MEAN CORPUSCULAR HEMOGLOBIN CONCENTRATION / MEAN CORPUSCULAR VOLUME / MONOCYTE / NEUTROPHIL / PLATELET COUNT: tissue Blood; for ALANINE AMINOTRANSFERASE / ALBUMIN / ALKALINE PHOSPHATASE / ASPARTATE AMINOTRANSFERASE / BLOOD UREA NITROGEN / CARBON DIOXIDE / CHLORIDE / CHOLESTEROL / CREATINE PHOSPHOKINASE / CREATININE / GLUCOSE / LACTATE DEHYDROGENASE / LIPASE / PHOSPHORUS / POTASSIUM / SODIUM / TOTAL BILIRUBIN / TOTAL PROTEIN / URIC ACID: tissue Plasma
[1] = 0 mg/kg, 72 h, dose level Control, time 3 day
[2] = 0 mg/kg, 120 h, dose level Control, time 5 day
[3] = 0.08 mg/kg, 72 h, dose level Low, time 3 day
[4] = 0.08 mg/kg, 120 h, dose level Low, time 5 day
[5] = 12 mg/kg, 72 h, dose level M1, time 3 day

C#C[C@]1(O)CC[C@H]2[C@@H]3CCC4=CC(=O)CC[C@@H]4[C@H]3CC[C@@]21C [NORETHINDRONE]
ABSOLUTE BASOPHIL [1]: 0 CELLS/uL | ABSOLUTE EOSINOPHIL [1]: 14 CELLS/uL | BASOPHIL [1]: 0% | EOSINOPHIL [1]: 0.17% | NUCLEATED RED BLOOD CELLS [1]: 0 /100WBC | ABSOLUTE BASOPHIL [2]: 0 CELLS/uL | BASOPHIL [2]: 0% | ABSOLUTE BASOPHIL [3]: 0 CELLS/uL | ABSOLUTE EOSINOPHIL [3]: 0 CELLS/uL | ABSOLUTE LYMPHOCYTE [3]: 8095 CELLS/uL | ABSOLUTE MONOCYTE [3]: 0 CELLS/uL | ABSOLUTE SEGMENTED NEUTROPHIL [3]: 538.33 CELLS/uL | BASOPHIL [3]: 0% | EOSINOPHIL [3]: 0% | ERYTHROCYTE COUNT [3]: 4.99 x10E6/uL | HEMATOCRIT [3]: 31.97% | HEMOGLOBIN [3]: 12.7 G/DL | LEUKOCYTE COUNT [3]: 8.63 x10E3/uL | LYMPHOCYTE [3]: 94.33% | MEAN CORPUSCULAR HEMOGLOBIN [3]: 25.5 pg | MEAN CORPUSCULAR HEMOGLOBIN CONCENTRATION [3]: 39.77 G/DL | MEAN CORPUSCULAR VOLUME [3]: 64.07 fL | MONOCYTE [3]: 0% | NEUTROPHIL [3]: 5.67% | NUCLEATED RED BLOOD CELLS [3]: 0 /100WBC | PLATELET COUNT [3]: 1042.33 x10E3/uL | ALANINE AMINOTRANSFERASE [3]: 76.33 u/L | ALBUMIN [3]: 4.1 G/DL | ALKALINE PHOSPHATASE [3]: 395.67 u/L | ASPARTATE AMINOTRANSFERASE [3]: 84.33 u/L | BLOOD UREA NITROGEN [3]: 13 mg/dL | CARBON DIOXIDE [3]: 28 mmol/L | CHLORIDE [3]: 101 MEQ/L | CHOLESTEROL [3]: 81 mg/dL | CREATINE PHOSPHOKINASE [3]: 236 u/L | CREATININE [3]: 0.17 mg/dL | GLUCOSE [3]: 185.33 mg/dL | LACTATE DEHYDROGENASE [3]: 127 u/L | LIPASE [3]: 24.67 u/L | PHOSPHORUS [3]: 9.57 mg/dL | POTASSIUM [3]: 5.52 MEQ/L | SODIUM [3]: 144.63 MEQ/L | TOTAL BILIRUBIN [3]: 0.1 mg/dL | TOTAL PROTEIN [3]: 5.67 G/DL | URIC ACID [3]: 0.77 mg/dL | ABSOLUTE BASOPHIL [4]: 0 CELLS/uL | ABSOLUTE EOSINOPHIL [4]: 0 CELLS/uL | ABSOLUTE LYMPHOCYTE [4]: 11824 CELLS/uL | ABSOLUTE MONOCYTE [4]: 160 CELLS/uL | ABSOLUTE SEGMENTED NEUTROPHIL [4]: 1549.33 CELLS/uL | BASOPHIL [4]: 0% | EOSINOPHIL [4]: 0% | ERYTHROCYTE COUNT [4]: 5.24 x10E6/uL | HEMATOCRIT [4]: 32.97% | HEMOGLOBIN [4]: 13 G/DL | LEUKOCYTE COUNT [4]: 13.53 x10E3/uL | LYMPHOCYTE [4]: 87% | MEAN CORPUSCULAR HEMOGLOBIN [4]: 24.87 pg | MEAN CORPUSCULAR HEMOGLOBIN CONCENTRATION [4]: 39.43 G/DL | MEAN CORPUSCULAR VOLUME [4]: 63.07 fL | MONOCYTE [4]: 1% | NEUTROPHIL [4]: 12% | NUCLEATED RED BLOOD CELLS [4]: 0 /100WBC | PLATELET COUNT [4]: 1265.67 x10E3/uL | ALANINE AMINOTRANSFERASE [4]: 76 u/L | ALBUMIN [4]: 4.27 G/DL | ALKALINE PHOSPHATASE [4]: 393 u/L | ASPARTATE AMINOTRANSFERASE [4]: 91.67 u/L | BLOOD UREA NITROGEN [4]: 10.67 mg/dL | CARBON DIOXIDE [4]: 30 mmol/L | CHLORIDE [4]: 98 MEQ/L | CHOLESTEROL [4]: 68 mg/dL | CREATINE PHOSPHOKINASE [4]: 173 u/L | CREATININE [4]: 0.12 mg/dL | GLUCOSE [4]: 150.67 mg/dL | LACTATE DEHYDROGENASE [4]: 80.33 u/L | LIPASE [4]: 33.67 u/L | PHOSPHORUS [4]: 9.53 mg/dL | POTASSIUM [4]: 5.88 MEQ/L | SODIUM [4]: 144.2 MEQ/L | TOTAL BILIRUBIN [4]: 0.1 mg/dL | TOTAL PROTEIN [4]: 5.83 G/DL | URIC ACID [4]: 0.63 mg/dL | ABSOLUTE BASOPHIL [5]: 0 CELLS/uL | ABSOLUTE EOSINOPHIL [5]: 0 CELLS/uL | ABSOLUTE LYMPHOCYTE [5]: 6372.33 CELLS/uL | ABSOLUTE MONOCYTE [5]: 130.67 CELLS/uL | ABSOLUTE SEGMENTED NEUTROPHIL [5]: 463.67 CELLS/uL | BASOPHIL [5]: 0% | EOSINOPHIL [5]: 0% | ERYTHROCYTE COUNT [5]: 5.18 x10E6/uL | HEMATOCRIT [5]: 32.47% | HEMOGLOBIN [5]: 12.27 G/DL | LEUKOCYTE COUNT [5]: 6.97 x10E3/uL | LYMPHOCYTE [5]: 90.33% | MEAN CORPUSCULAR HEMOGLOBIN [5]: 23.7 pg | MEAN CORPUSCULAR HEMOGLOBIN CONCENTRATION [5]: 37.8 G/DL | MEAN CORPUSCULAR VOLUME [5]: 62.77 fL | MONOCYTE [5]: 1.67% | NEUTROPHIL [5]: 8% | NUCLEATED RED BLOOD CELLS [5]: 0 /100WBC | PLATELET COUNT [5]: 1187.33 x10E3/uL | ALANINE AMINOTRANSFERASE [5]: 50 u/L | ALBUMIN [5]: 4.47 G/DL | ALKALINE PHOSPHATASE [5]: 371.33 u/L | ASPARTATE AMINOTRANSFERASE [5]: 87.67 u/L | BLOOD UREA NITROGEN [5]: 11.33 mg/dL | CARBON DIOXIDE [5]: 34 mmol/L | CHLORIDE [5]: 101.67 MEQ/L | CHOLESTEROL [5]: 32.67 mg/dL | CREATINE PHOSPHOKINASE [5]: 431.33 u/L | CREATININE [5]: 0.19 mg/dL | GLUCOSE [5]: 136.67 mg/dL | LACTATE DEHYDROGENASE [5]: 119.33 u/L | LIPASE [5]: 8.67 u/L | PHOSPHORUS [5]: 11.1 mg/dL | POTASSIUM [5]: 5.95 MEQ/L
